Data taken from ChEMBL document CHEMBL5321197, “Computational, in vitro and radiation-based in vivo studies on acetamide quinazolinone derivatives as new proposed purine nucleoside phosphorylase inhibitors for breast cancer” (Eur J Med Chem, 2023).

Tests used:
MCF7 = assay: Cytotoxicity against human MCF7 cells assessed as reduction in cell viability incubated for 24 hrs by MTT assay; assay type: functional, cell-based; conditions: MCF7, 24 h
[1] = target: T1, Purine nucleoside phosphorylase (Homo sapiens, UniProt P00491); assay: Inhibition of PNP (unknown origin) by fluorescent based microplate reader analysis
T1 sequence (P00491 whole entry): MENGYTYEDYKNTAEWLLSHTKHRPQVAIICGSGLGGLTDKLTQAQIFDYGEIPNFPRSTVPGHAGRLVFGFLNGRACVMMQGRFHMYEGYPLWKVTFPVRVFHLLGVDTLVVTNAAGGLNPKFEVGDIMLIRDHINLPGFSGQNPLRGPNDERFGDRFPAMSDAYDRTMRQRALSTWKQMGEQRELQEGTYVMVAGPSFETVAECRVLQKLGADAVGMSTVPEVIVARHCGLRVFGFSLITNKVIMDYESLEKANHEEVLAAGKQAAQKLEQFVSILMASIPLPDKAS

MDA-MB-468 = assay: Cytotoxicity against human MDA-MB-468 cells assessed as reduction in cell viability incubated for 24 hrs by MTT assay; assay type: functional, cell-based; conditions: MDA-MB-468, 24 h
T47D = assay: Cytotoxicity against human T47D cells assessed as reduction in cell viability incubated for 24 hrs by MTT assay; assay type: functional, cell-based
Hs-578T = assay: cells; assay type: functional, cell-based; conditions: Homo sapiens, 24 h
Description: Cytotoxicity against human Hs-578T cells assessed as reduction in cell viability incubated for 24 hrs by MTT assay

MDA-MB-231 = assay: Cytotoxicity against human MDA-MB-231 cells assessed as reduction in cell viability incubated for 24 hrs by MTT assay; assay type: functional, cell-based; conditions: MDA-MB-231, 24 h
MCF-10A = assay: Cytotoxicity against human MCF-10A cells assessed as reduction in cell viability incubated for 24 hrs by MTT assay; assay type: functional, cell-based
BT-549 = assay: Cytotoxicity against human BT-549 cells assessed as reduction in cell viability incubated for 24 hrs by MTT assay; assay type: functional, cell-based; conditions: BT-549, 24 h

Compound	IC50 [1]	IC50 (MCF7)	other results
COc1cc(NC(=O)CSc2nc3ccc(C)cc3c(=O)n2-c2ccccc2)cc(OC)c1OC	3.18 µM	158 µM	
COc1cc(NC(=O)Cn2c(=S)n(-c3ccccc3)c(=O)c3cc(C)ccc32)cc(OC)c1		9.87 µM	
COc1ccc(NC(=O)CSc2nc3ccc(C)cc3c(=O)n2-c2ccccc2)cc1OC	5.63 µM	383 µM	
CCOC(=O)c1ccccc1NC(=O)CSc1nc2ccc(C)cc2c(=O)n1-c1ccccc1	2.12 µM	926 µM	
CCOC(=O)N1CCC(NC(=O)CSc2nc3ccc(C)cc3c(=O)n2-c2ccccc2)CC1	1.88 µM	31 µM	
CC(=O)c1ccccc1NC(=O)CSc1nc2ccc(C)cc2c(=O)n1-c1ccccc1	3.35 µM	278 µM	
COc1cc2ncnc(Nc3ccc(F)c(Cl)c3)c2cc1OCCCN1CCOCC1 [GEFITINIB]			IC50 (T47D): 3.47 µM

The remaining compounds from weak to strong by IC50 [1], led by results:

IC50 [1]	Compound	IC50 (MCF7)	other results
1.32 µM	COc1cc(NC(=O)CSc2nc3ccc(C)cc3c(=O)n2-c2ccccc2)cc(OC)c1	8.5 µM	
1.13 µM	Cc1ccc2nc(SCC(=O)NCCc3ccccc3)n(-c3ccccc3)c(=O)c2c1	104 µM	
0.998 µM	CC(=O)c1ccccc1NC(=O)Cn1c(=S)n(-c2ccccc2)c(=O)c2cc(C)ccc21	87.2 µM	
0.442 µM	Cc1ccc2c(c1)c(=O)n(-c1ccccc1)c(=S)n2CC(=O)NCCc1ccccc1	48.1 µM	
0.338 µM	COc1ccc(NC(=O)Cn2c(=S)n(-c3ccccc3)c(=O)c3cc(C)ccc32)cc1OC	5.16 µM	
0.255 µM	COc1cc(NC(=O)Cn2c(=S)n(-c3ccccc3)c(=O)c3cc(C)ccc32)cc(OC)c1OC	3.73 µM	
0.173 µM	CCOC(=O)N1CCC(NC(=O)Cn2c(=S)n(-c3ccccc3)c(=O)c3cc(C)ccc32)CC1	1.77 µM	
0.159 µM	CCOC(=O)c1ccccc1NC(=O)Cn1c(=S)n(-c2ccccc2)c(=O)c2cc(C)ccc21	0.99 µM	IC50 (MDA-MB-468): 5.83 µM; IC50 (T47D): 4.54 µM; IC50 (Hs-578T): 22.3 µM; IC50 (MDA-MB-231): 6.01 µM; IC50 (MCF-10A): 67.3 µM; IC50 (BT-549): 6.84 µM
0.041 µM	Nc1nc2c(Cc3cccnc3)c[nH]c2c(=O)[nH]1 [PELDESINE]		
